Read-outs that look alike come from different tables or passages of the source.
Key:
[1] = test system: E. coli ATCC 25922; assay: AST by analysis of changes in morphology and growth pattern of a microbial cell (MAC 2.0 chip imaging); type: cell-based; settings: Normal / Filament / Swelling
Description: (§1) Four reference strains (E. coli ATCC 25922, S. aureus ATCC 29213, P. aeruginosa ATCC 27853, and E. faecalis ATCC 29212) were used as objective strains, in accordance with Clinical and Laboratory Standards Institute (CLSI) guidelines. […] The bacterial cell in MAC 2.0TM (QuantaMatrix) was monitored through a S Plan Fluor ELWD 60X (NA 1.49) lens of an inverted optical microscope (Eclipse Ti-Nikon, IX71-Olympus) provided in a heating system, and then, an electron multiplying CCD camera (QuantEM:512SC Photometrics for Eclipse Ti) was used to obtain images of a region where is adjacent to an interface between the agarose well of MAC 2.0TM and the antimicrobial agents well, over time.

[2] = test system: E. faecalis ATCC 29212; assay: as above; type: cell-based; settings: RRG = relatively rapid growth, RSG = relatively slow growth
Description: as §1

[3] = test system: S. aureus ATCC 29213; assay: as above; type: cell-based; settings: RRG = relatively rapid growth, RSG = relatively slow growth
Description: as §1

[4] = test system: E. coli ATCC 25922; assay: MIC by the proposed method (SCMA), from morphology and growth pattern changes; type: cell-based; settings: time to result 3 hr
Description: (§2) The bacterial cell in MAC 2.0™ (QuantaMatrix) was monitored through a S Plan Fluor ELWD 60X (NA 1.49) lens of an inverted optical microscope (Eclipse Ti—Nikon, IX71—Olympus) provided in a heating system, and then, an electron multiplying CCD camera (QuantEM:512SC Photometrics for Eclipse Ti) was used to obtain images of a region where is adjacent to an interface between the agarose well of MAC 2.0™ and the antimicrobial agents well, over time. […] In the AST method according to the inventive concept, minimal inhibitory concentration (MIC) was measured using the changes in morphology and growth pattern of the four reference strains (i.e., E. coli ATCC 25922, S. aureus ATCC 29213, P. aeruginosa ATCC 27853, and E. faecalis ATCC 29212) and was compared with MIC quality control (QC) per CLSI guidelines.

[5] = test system: E. faecalis ATCC 29212; assay: as above; type: cell-based
Description: as §2

[6] = test system: S. aureus ATCC 29213; assay: as above; type: cell-based; settings: time to result 4 hr
Description: as §2

[7] = test system: E. coli ATCC 25922; settings: time to result 16~20 hr; cited from earlier work
[8] = test system: S. aureus ATCC 29213; settings: time to result 16~20 hr; cited from earlier work
[9] = test system: E. faecalis ATCC 29212; settings: time to result 16~20 hr, cited from earlier work
[10] = test system: P. aeruginosa ATCC 27853; assay: AST by analysis of changes in morphology and growth pattern of a microbial cell (MAC 2.0 chip imaging); type: cell-based; settings: Normal / Filament / Swelling
Description: as §1

[11] = test system: P. aeruginosa ATCC 27853; assay: MIC by the proposed method (SCMA), from morphology and growth pattern changes; type: cell-based; settings: time to result 3 hr
Description: as §2

[12] = test system: P. aeruginosa ATCC 27853; settings: time to result 16~20 hr; cited from earlier work

Row | Compound | Criteria (change in morphology and growth pattern) [1] | Criteria (change in morphology and growth pattern) [2] | Criteria (change in morphology and growth pattern) [3] | SCMA Results (MIC) [4] | SCMA Results (MIC) ([5]; time to result 4 hr) | SCMA Results (MIC) ([6]; unit assumed) | CLSI QC range (MIC) [7] | CLSI QC range (MIC) [8] | CLSI QC range (MIC) [9] | Criteria (change in morphology and growth pattern) [10] | SCMA Results (MIC) ([4]; unit assumed) | SCMA Results (MIC) [11] | SCMA Results (MIC) [6] | CLSI QC range (MIC) [12] | CLSI QC range (MIC) ([9]; unit assumed) | SCMA Results (MIC) ([5]; 6 hr)
1 | CC1(C)S[C@@H]2[C@H](NC(=O)[C@H](N)c3ccccc3)C(=O)N2[C@H]1C(=O)O [Ampicillin] | Filament | Normal | Normal | 2~4 | 0.5~1 | 1 mg/L | 2~8 | 0.5~2 | 0.5~2 | – | – | – | – | – | – | –
2 | Gentamicin | Normal | Normal | Normal growth | – | ≤ 500 mg/L | – | 0.25~1 | 0.12~1 | – | Normal growth | 0.25 mg/L | 0.5~1 | 0.25~0.5 | 0.5~2 | ≤ 500 mg/L | –
3 | CC[C@H]1OC(=O)[C@H](C)[C@@H](O[C@H]2C[C@@](C)(OC)[C@@H](O)[C@H](C)O2)[C@H](C)[C@@H](O[C@@H]2O[C@H](C)C[C@H](N(C)C)[C@H]2O)[C@](C)(O)C[C@@H](C)C(=O)[C@H](C)[C@@H](O)[C@]1(C)O [Erythromycin] | – | RSG | RSG | – | – | 0.25 mg/L | – | 0.25~1 | 1~4 | – | – | – | – | – | – | 1 (6 hr)
4 | Penicillin | – | Normal | Normal | – | 1~2 | 0.5 mg/L | – | 0.25~2 | 1~4 | – | – | – | – | – | – | –
